Results as given in patent US20100233199A1, “MODULATORS OF HYPERSENSITIVITY REACTIONS” (priority 2007, published 2010).
Values belong to the molecule of their own block, whether it stands above or below them.

Legend:
skin mast cells = assay type: in vivo, mice; details: for systemic effects of local (ear) treatment: mouse, in vivo
Experimental: Left ears were treated with DMSO and right ears with 0.2% MDD1 or 0.1% dexamethasone in DMSO twice daily for four days. Mice were then sensitised with anti DNP-20 ul IgE antibody administered to the ears by intradermal injection using an insulin syringe. Local mast cell activation was measured by dye recovery in response to FcεRI crosslink 24 hours post-injection: 100 μg DNP-albumin/1% Evans blue in PBS was injected intravenously and ear biopsies taken after 30 minutes were incubated at 80° C. in 1 ml formamide for 2 hours. The absorbance supernatant was measured at 620 nm.

[1] = Peptide solubility observation; assay type: physicochemical
RBL-2H3 cells [2] = test: MDD1 uptake by RBL-2H3 cells (FACS, streptavidin-APC); assay type: cell-based, rat; details: biotinylated MDD1 0.001, 0.01 and 0.1 mM overnight; intracellular FACS staining with streptavidin APC; FIG. 6
Experimental: RBL-2H3 cells were grown in F15 medium supplemented with 10% of fetal calf serum (FCS) and antibiotics. Cells were carefully detached from the culture flask with a cell scraper and plated at a concentration of 5×10^5 cells/well in a 96 well microtiter plate. Cells were incubated with various concentrations of biotinylated MDD1 (0.1, 0.01 and 0.001 mM) overnight. Biotinylated MDD1 uptake by live cells was detected using streptavidin-APC in single-cell suspensions previously treated with a combined cytofix/cytopenn fixation and penneabilization solution kit following manufacture's instructions (Becton Dickinson, BD). Cells were then analysed using a BD FACscan flow cytometer.

RBL-2H3 cells [3] = test: RBL-2H3 degranulation assay (β-hexosaminidase release); assay type: cell-based, rat; details: for degranulation upon IgE receptor crosslinking: peptide 0.01 mM pre-treatment overnight, IgE coating + DNP/albumin crosslinking, FIG. 7
Experimental: (§1) Mast cell degranulation was measured using the β-hexosaminidase release method. RBL-2H3 cells were grown in F15 medium supplemented with 10% of fetal calf serum (FCS) and antibiotics. Cells were carefully detached from the culture flask with a cell scraper and plated at a concentration of 5×10^5 cells/well in a 96 well microtiter plate and incubated in the presence of MDD1 or SCR peptide overnight. RBL-2H3 cells were then incubated with 500 ng/ml anti-DNP IgE mb (SIGMA) for 2 hours at 37° C. After washing, cells were stimulated with 100 ng/ml DNP/albumin for 30 minutes. For non IgE specific stimulation 1 nM Ionomycin only was added to the cultures for 30 minutes. Supernatants were then collected and cell lysates were prepared using 0.1% Triton X-100. Lysate and supernatant samples (10 μl) were transferred into 96-well plates and 50 μl mM 1 mM p-nitrophenyl-N-acetyl-β-D-glucopyranoside in 50 mM citrate buffer was added to each well and incubated for 1 hour at 37° C. in the dark. The reaction was stopped by adding 100 μl 0.1M NaHCO3/0.1M Na2CO3 into each well and the absorbance measured at 405 nm. Percentage degranulation was calculated by the following formula: OD supernatant/(OD supernatant+OD lysate)×100.
as §1, with “MPX741 peptide” for “MDD1”, “MPX742” for “SCR”, “(100)” for “(10 μl)”, “μl” for “μl mM”, “formula:” for “formula: OD supernatant/(OD supernatant+OD lysate)×100.”
OD supernatant/(OD supernatant+OD lysate)×100.

OVA-sensitised mice [4] = test: OVA-induced asthma model, lung resistance after β-methacholine; assay type: in vivo, C57BL/6 mice; details: 6 hours prior to each OVA challenge, compared to control peptide
Experimental: (§2) C57BL/6 mice were sensitised with 10 ug ovalbumin antigen (OVA) in saline intraperitoneally seven times given on alternate days. 40 days after first sensitisation dose, mice were challenged with intranasal OVA (20 ul in each nostril of a solution of 5 mg/ml of OVA in saline). Mice received two additional challenges of intranasal OVA at days 3 and 6 after the first challenge with OVA. Control mice were sensitised with OVA, but challenged intranasally with saline. Groups of mice receiving parenteral MDD1 treatment were intravenously injected with 8 mg/Kg of MDD1 three times, 6 hours prior to each OVA challenge. Nebulised MDD1 or MDDscram (SCR) peptide was given 6 hours prior to each OVA challenge by nebulising 5 mice per cage with 8 ml of 1 mg/ml MDD1 or control peptide.
Functional lung studies and organ collection was performed one day after the final OVA challenge. Lung resistance was measured in anesthetized mice after increasing doses of β-methacholine. […] Lung resistance was measured by plethysmography, using an apparatus and software supplied by Buxco. Lung resistance values are expressed as an average of each group of mice for each methacholine dose. For each mouse, individual values were calculated by averaging collected data (every 5 seconds during 5 minutes) for each methacholine dose.

OVA-sensitised mice [5] = test: OVA-induced asthma model, inflammatory response (eosinophils, BAL cells, cytokine expression, serum IgE); assay type: in vivo, C57BL/6 mice
Experimental: as §2
Blood smears were prepared and the percentage of eosinophils was calculated by morphological criteria after May-Grünwald Giemsa-staining. Bronchoalveolar lavage (BAL) was recovered by lavaging airways twice with 1 ml HANKS solution via the tracheal cannula while gently massaging the thorax. Lung lower left lobe was collected and homogenised. Cells were filtered through a cell strainer and cell suspensions prepared in staining medium (PBS with 1% FCS). BAL and lung samples were incubated with anti-CD11b, anti-CCR3, anti-CD4 and antiB220 mab markers for flow cytometric analysis using a FACScan equipped with CellQuest software.
Lung upper right lobe was collected and homogenised on ice. Total RNA was prepared using Trizol (GIBCO, Invitrogen). Purity of the RNA was determined by A260/A280. 5 μg RNA for each sample was reverse transcribed into cDNA using Omniscript RT kit (Qiagen). Cytokine specific predesigned TaqMan gene expression assay (Applied Biosystems) were used to measure cytokine relative gene expression following the manufacturer's instructions (Applied Biosystems). Each experimental sample was assayed in three replicates. β-actin specific primers were used as an internal standard. Negative controls with blank cDNA template were run with every assay to assess specificity. The cycling conditions were as follows: one cycle at 95° C. for 10 minutes, followed by 40 cycles of PCR amplification, each consisting of 95° C. for 15 seconds and 60° C. for 45 seconds. Sequence Detection Software (SDS v 1.2.2, Applied Biosystems) was used for analysis of the results. A threshold cycle (Ct) was determined for each sample. PCR assays showing non-specific products at the end point were excluded from further data analysis. Relative quantification using comparative Ct method was used for analysing results. The results were expressed as relative fold change over the values for non-allergic mice.
OVA-specific IgE detection: 96-well maxisorp plates were coated overnight at 4° C. with anti-mouse IgE. 2% skim milk was used for unspecific binding blockade. Prediluted serum samples were incubated overnight, plates were loaded with OVA-biotin for 1.5 hours and a colometric reaction was developed using ABTS following manufacture's instructions. For OVA-specific IgG, 96-well maxisorp microtiter plates were pretreated with 0.2% glutaraldehyde and were coated with 10 μg/ml of OVA in 10 mM carbonate buffer (pH 9.6) for 3 hours at 37° C. Wells were blocked with 2% BSA in 10 mM carbonate buffer (pH 9.6) overnight at 4° C. in a humidified chamber. Serum samples were incubated at 37° C. for 1 hour. Peroxidase-conjugated […] followed by ABTS was used to develop the colorimetric reaction. Optical density was read in a microplate reader using a 405 nm filter. Levels of IgE and IgG were expressed as OD units.

Molecule: Ac-RALYDNVPECAEELAFRKGD-NH2 [MDD1]
MDD1 peptide uptake by live cells (RBL-2H3 cells [2]): All cells were positive for MDD1 peptide and the levels were observed to increase with peptide concentration
mast cell activation after non-specific stimulation (RBL-2H3 cells [3]; non IgE specific stimulation (ionomycin), data not shown): inhibit mast cell activation
degranulation upon IgE receptor crosslinking (RBL-2H3 cells [3]): inhibit degranulation
Lung resistance (RL) following increasing doses of β-methacholine (OVA-sensitised mice [4]; intravenously 8 mg/kg, FIG. 8A): reduced
Lung resistance (RL) following increasing doses of β-methacholine (OVA-sensitised mice [4]; nebulised intranasal route 1 mg/ml, FIG. 8B): reduced
overall inflammatory response in the asthmatic reaction (OVA-sensitised mice [5]; OVA-sensitized mice, FIG. 9): reduced
eosinophilia in blood (OVA-sensitised mice [5]; allergic mice compared to control treated mice, FIG. 9A): decreased
cellularity in broncho-alveolar lavages (OVA-sensitised mice [5]; allergic mice compared to control treated mice, FIG. 9B): decreased
cytokine production in inflammatory foci (TNF expression) (OVA-sensitised mice [5]; allergic mice compared to control treated mice, FIG. 9C): decreased
levels of antigen-specific IgE in serum (OVA-sensitised mice [5]; allergic mice compared to control treated mice, FIG. 9D): decreased
comparison with dexamethasone treatment in the inflammatory parameters tested (OVA-sensitised mice [5]; dexamethasone 2 mg/kg i.p., some of the parameters, FIG. 9): outperformed dexamethasone treatment
mast cell activation following IgE receptor crosslink, by dye extravasation (skin mast cells; 0.2% MDD1 peptide/DMSO topically to ear, twice daily for four days, compared to contralateral ears treated with DMSO only, FIG. 10): reduced levels of activation
systemic effects of local (ear) treatment (skin mast cells): minimal systemic effects

Molecule: EALPGEDCAFRKDANRLVEY (listed as Homo sapiens) [MDD1scram, control peptide, reference compound]
degranulation upon IgE receptor crosslinking (RBL-2H3 cells [3]): only a minor inhibitory effect

Molecule: LEPPVKLKELHFSNMKTVD (listed as Homo sapiens) [MPX742]
degranulation following IgE receptor crosslink (RBL-2H3 cells [3]; MPX741, MPX742 0.01 mM pre-treatment, IgE coating + crosslinking, FIG. 11): significantly reduced degranulation

More lines, now with the values ahead:

systemic effects of local (ear) treatment (skin mast cells): systemic immunosuppresion
Molecule: C[C@@H]1C[C@H]2[C@@H]3CCC4=CC(=O)C=C[C@]4(C)[C@@]3(F)[C@@H](O)C[C@]2(C)[C@@]1(O)C(=O)CO [dexamethasone, reference compound]

solubility [1]: poorly soluble
Molecule: Ac-PQDQGWNAEITLQMVQY-NH2 [MPX743, PQDQGWNAEITLQMVQY]
